In article PMC3723855, “R31C GNRH1 Mutation and Congenital Hypogonadotropic Hypogonadism” (PLoS ONE, 2013):
“Also recorded” adds a separate entry of the source. Blank lines part the entries; values can stand above or below the compound they belong to.

Assays:
LH (LbetaT2 cells) = experiment: LH secretion from LbetaT2 cells; format: cell-based, murine; settings: for LH secretion versus WT GnRH: 10 nM R31C; for LH secretion over baseline: 10 nM, four experiments in duplicates, p<0.001 for WT, p = 0.042 for R31C
Protocol: (§1) Figure 7 Effects of treatments on lhb transcription and LH secretion. (A) LbetaT2 cells were starved overnight in serum-free DMEM and treated either by 10 nM WT, R31C, 10 nM WT +10 nM R31C peptides or vehicle. After five hours treatment cells were lysed for RNA extraction (Trizol®). Mouse lhb levels were analyzed by quantitative real time RT-qPCR. Values are expressed as individual ratios on 18S and represented as fold induction on vehicle as means ± SEM, **p<0.01. This experience was conducted n = 7 times in duplicates. (B) LH concentrations from LbetaT2 cells culture media. Cells were starved overnight in serum-free DMEM and incubated with 10 nM WT, 10 nM R31C, 10 nM WT +10 nM R31C, or vehicle for 5 hours. LH levels were measured by a combined rat/mouse RIA. Values are expressed as individual values and as means ± SEM, *p<0.05, ***p<0.001. The experiment was conducted four times and each sample was assayed in duplicates.
LbetaT2 cells were starved overnight in serum-free DMEM. The test day cells were exposed to 10 nM WT, R31C, the combination of 10 nM of each peptide or vehicle during five hours. Cell culture supernatants were collected and rapidly stored at −80°C. In cell culture media, LH concentration was measured using a previously described […] method with reagents supplied by Dr. Parlow (National Hormone and Peptide Program, Harbor-UCLA Medical Center, Torrance, CA). The minimum detectable LH concentration was 0.2 ng/ml, and the interassay coefficient of variation was less than 10%.

lhb (LbetaT2 cells) = experiment: lhb transcription (RT-qPCR) in LbetaT2 cells; format: cell-based, mouse; settings: for lhb transcription versus WT GnRH: 10 nM R31C; for lhb transcript levels: 10 nM, n = 7 in duplicates, p<0.01 for WT, not significant for R31C
Protocol: as §1, with “(A) LbetaT2 cells were starved overnight in serum-free DMEM and treated either by 10 nM WT, R31C, 10 nM WT +10 nM R31C peptides or vehicle.” left out
LbetaT2 cells were grown at 10^6/well in 6-well plates and starved in serum-free DMEM 18 h before tests. […]
Lhb (murine LH beta subunit) transcript was quantified by real-time RT-PCR, using an ABI Step One Sequence Detector (Applied Biosystem, Foster City, CA) as previously described.

GnRH-R = experiment: Binding after pre-incubation and washout (covalent binding test), transfected COS-7 cells; set-up: species or system human; settings: for covalent binding to receptor / subsequent binding of radiolabeled GnRH analog after pre-incubation and washing: WT GnRH 10^−8 M or R31C GnRH 10^−5 M, 2 h, 4°C, washed, 1 h, two experiments in triplicate
Protocol: Figure 2 Binding of WT and R31C GnRH to the GnRH receptor (GnRH-R). […] Data are the means of two experiments performed in triplicate.
We hypothesized that the cysteine in position 8 of the R31C GnRH might form disulfide bridges with cysteine residues in the receptor that are not in disulfide bridges. There are three such cysteines: cysteine 218, cysteine 279 and cysteine 317. In order to examine this possibility the effects of R31C GnRH pre-incubation on subsequent binding of a radio-labelled GnRH analog was examined. […] After treatment, the cells were extensively washed to remove all non-covalently bound peptide.

[1] = Peptide stability in solution, LC-MS/MS
Protocol: LC-MS/MS was performed with Quattro-LCZ triple quadrupole mass spectrometer equipped with the orthogonal electrospray source (Micromass, Manchester, UK) to analyze peptides stability in solution. Peptides solutions (water and cell culture medium) were incubated 24-h at room temperature for these stability studies.
Peptides were measured in aqueous solution at pH 7 and starved overnight at 37°C.

LbetaT2 cells = experiment: Intracellular calcium mobilization (Fura2) in LbetaT2 cells; format: cell-based, murine; settings: for calcium mobilisation: 10 nM, LbetaT2 cells
Protocol: Figure 5 Effect of treatments on intracellular calcium mobilization. Cells were loaded with Fura 2-AM. At the time of the experiment 100 µM EGTA was added 30 sec before addition of 300 µM of CaCl2 (Ca^2+) to the medium as indicated, and cells were then stimulated with 10 nM of wild type (WT), mutant (R31C) or equimolar combination (10 nM WT +10 nM R31C) or vehicle for 3 min. In the upper panel, representative curves of single cell recording. Each experiment mean was analysed using One-way ANOVA followed by Tukey's Multiple comparison test. In the lower panels, histograms show the means ± SEM (n = 4) of the response to ligands as calcium peak and as area under the curve (AUC). […] Representative of at least three independent experiments, *p<0.05.
LbetaT2 cells were kept in serum free medium overnight and then loaded with 2 µM Fura2-AM for 45 min at 37°C. The experiment was conducted in HEPES buffer (in mM; 116 NaCl, 5.6 KCl, 1.2 MgCl2, 5 NaHCO3, 1 NaH2PO4, 20 HEPES ph 7.4) in presence of extracellular Ca^2+ (EGTA 100 µM + CaCl2 300 µM). Single images of fluorescent emission at 510 nm under excitation at 340 and 380 nm were taken every 5 Sec. Changes in [Ca^2+]i in response to GnRHs were monitored using the Fura2 340/380 fluorescence ratio. Basal ratio was arbitrarily considered as 1. Ca^2+ responses over basal level were given either as maximal rise of [Ca^2+]i or as area under the curve (for 2 min after agonist addition).

[2] = 5 hours, listed as R31C peptide
[3] = R31C 10^−10 M to 10^−6 M in combination with WT GnRH at 10^−9 M
[4] = aqueous solution at pH 7, overnight at 37°C, mass spectrometry-coupled electrospray (Fig. S1)
[5] = 10 nM R31C, 3 min, EGTA 100 µM + CaCl2 300 µM, n = 4, p<0.05

dimerization ([1]; 24 h, room temperature, water and culture medium, LC-MS/MS): No dimerization | formation of R31C dimers [1, 4]: absent | formation of smaller fragments [1, 4]: negligible | stability over 24-hours ([1]; culture medium, room temperature, 24 h, LC-MS/MS): stable | stability over 24-hours ([1]; water, room temperature, 24 h, LC-MS/MS): stable
SMILES: CC(C)C[C@H](NC(=O)CNC(=O)[C@H](Cc1ccc(O)cc1)NC(=O)[C@H](CO)NC(=O)[C@H](Cc1c[nH]c2ccccc12)NC(=O)[C@H](Cc1c[nH]cn1)NC(=O)[C@@H]1CCC(=O)N1)C(=O)N[C@@H](CS)C(=O)N1CCC[C@H]1C(=O)NCC(N)=O [R31C GnRH]
LH secretion versus WT GnRH (LH (LbetaT2 cells); 5 hours): very low activity | LH secretion versus WT GnRH (LH (LbetaT2 cells); [2]): weaker responses | influence of R31C GnRH on stimulation of LH secretion by WT GnRH (LH (LbetaT2 cells); 10 nM WT + 10 nM R31C, 5 hours): unable to influence | LH secretion over baseline (LH (LbetaT2 cells); 5 hours): significantly stimulated LH secretion | impact of added R31C GnRH on LH secretion with WT GnRH (LH (LbetaT2 cells); [3]): failed to have any impact | lhb transcription versus WT GnRH (lhb (LbetaT2 cells); 5 hours): very low activity | lhb transcription versus WT GnRH (lhb (LbetaT2 cells); [2]): weaker responses | influence of R31C GnRH on stimulation of lhb transcription by WT GnRH (lhb (LbetaT2 cells); 10 nM WT + 10 nM R31C, 5 hours): unable to influence the stimulation of lhb transcription | lhb transcript levels (lhb (LbetaT2 cells); 5 hours): did not significantly increase these levels over baseline | impact of added R31C GnRH on lhb transcription with WT GnRH (lhb (LbetaT2 cells); [3]): failed to have any impact | receptors occupied in pre-incubation (GnRH-R; R31C GnRH (10^−5 M in method and Fig. 2B), determined from the competition binding study): 50% | covalent binding to receptor / subsequent binding of radiolabeled GnRH analog after pre-incubation and washing (GnRH-R): does not form covalent disulfide bonds with the receptor | calcium area under the curve (AUC) versus WT (LbetaT2 cells; [5]): significantly reduced compared to WT; also recorded: significantly lower than WT | calcium peak versus WT (LbetaT2 cells; [5]): significantly reduced compared to WT; also recorded: significantly lower than WT | calcium mobilisation (LbetaT2 cells): very low activity | calcium mobilisation (LbetaT2 cells; listed as R31C peptide): weaker responses | impact of added R31C GnRH on Ca2+ signaling with WT GnRH (LbetaT2 cells; [3]): failed to have any impact

formation of smaller fragments [1, 4]: absent
SMILES: CC(C)C[C@H](NC(=O)CNC(=O)[C@H](Cc1ccc(O)cc1)NC(=O)[C@H](CO)NC(=O)[C@H](Cc1c[nH]c2ccccc12)NC(=O)[C@H](Cc1c[nH]cn1)NC(=O)[C@@H]1CCC(=O)N1)C(=O)N[C@@H](CCCNC(=N)N)C(=O)N1CCC[C@H]1C(=O)NCC(N)=O [WT GnRH, reference compound]
LH secretion over baseline (LH (LbetaT2 cells); 5 hours): strongly stimulated LH secretion over baseline | lhb transcript levels (lhb (LbetaT2 cells); 5 hours): significantly increased lhb transcript levels | covalent binding to receptor / subsequent binding of radiolabeled GnRH analog after pre-incubation and washing (GnRH-R): can be fully removed from the receptor | receptors occupied in pre-incubation (GnRH-R; WT GnRH at 10^−8 M): 50% | calcium mobilisation (LbetaT2 cells): rapid and transient calcium mobilisation
